We go through one compound from ChEMBL document CHEMBL4680193, “Isoindoline scaffold-based dual inhibitors of HDAC6 and HSP90 suppressing the growth of lung cancer in vitro and in vivo” (Eur J Med Chem, 2020).

Activity calls are given as the source filed them. No cut-off for these calls is given here.

Assay [1] addresses T1, Protein deacetylase HDAC6 (Homo sapiens, UniProt Q9UBN7).
T1 sequence (Q9UBN7 whole entry): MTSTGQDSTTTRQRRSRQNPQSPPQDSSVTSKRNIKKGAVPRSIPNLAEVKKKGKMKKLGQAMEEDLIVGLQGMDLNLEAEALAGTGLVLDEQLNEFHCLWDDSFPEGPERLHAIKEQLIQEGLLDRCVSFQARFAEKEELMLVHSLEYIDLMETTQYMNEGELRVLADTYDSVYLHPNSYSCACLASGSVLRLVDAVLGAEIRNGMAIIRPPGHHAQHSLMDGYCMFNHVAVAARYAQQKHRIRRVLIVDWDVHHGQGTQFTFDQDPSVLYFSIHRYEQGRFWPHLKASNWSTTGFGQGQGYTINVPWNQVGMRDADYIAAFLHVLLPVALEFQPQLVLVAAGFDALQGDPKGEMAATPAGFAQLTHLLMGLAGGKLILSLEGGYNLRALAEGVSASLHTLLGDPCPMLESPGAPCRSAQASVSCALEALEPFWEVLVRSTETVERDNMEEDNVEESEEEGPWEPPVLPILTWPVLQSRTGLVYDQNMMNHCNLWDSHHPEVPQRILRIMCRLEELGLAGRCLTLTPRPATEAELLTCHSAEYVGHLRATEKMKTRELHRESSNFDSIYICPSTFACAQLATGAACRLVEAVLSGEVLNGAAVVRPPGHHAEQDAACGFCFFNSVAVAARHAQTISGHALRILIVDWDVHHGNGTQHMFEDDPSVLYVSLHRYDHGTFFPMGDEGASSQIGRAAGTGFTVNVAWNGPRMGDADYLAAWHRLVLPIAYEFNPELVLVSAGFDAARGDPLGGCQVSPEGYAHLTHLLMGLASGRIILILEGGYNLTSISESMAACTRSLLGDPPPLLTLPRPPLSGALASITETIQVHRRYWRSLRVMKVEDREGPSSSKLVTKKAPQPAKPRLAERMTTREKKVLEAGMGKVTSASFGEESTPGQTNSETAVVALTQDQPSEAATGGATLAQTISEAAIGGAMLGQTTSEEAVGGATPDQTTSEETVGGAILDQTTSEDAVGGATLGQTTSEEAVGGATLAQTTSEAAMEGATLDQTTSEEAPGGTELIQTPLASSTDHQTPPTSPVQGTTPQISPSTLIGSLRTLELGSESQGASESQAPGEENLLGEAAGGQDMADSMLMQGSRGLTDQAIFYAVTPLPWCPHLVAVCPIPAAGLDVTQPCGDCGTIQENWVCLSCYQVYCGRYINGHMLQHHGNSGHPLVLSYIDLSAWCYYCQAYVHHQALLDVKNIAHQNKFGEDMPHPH
In words: Inhibition of recombinant human HDAC6 using RHK-K(Ac)-AMC as substrate by fluorescence based assay.

A further assay addresses T2, Histone deacetylase 8 (Homo sapiens, UniProt Q9BY41).
T2 sequence (Q9BY41 whole entry): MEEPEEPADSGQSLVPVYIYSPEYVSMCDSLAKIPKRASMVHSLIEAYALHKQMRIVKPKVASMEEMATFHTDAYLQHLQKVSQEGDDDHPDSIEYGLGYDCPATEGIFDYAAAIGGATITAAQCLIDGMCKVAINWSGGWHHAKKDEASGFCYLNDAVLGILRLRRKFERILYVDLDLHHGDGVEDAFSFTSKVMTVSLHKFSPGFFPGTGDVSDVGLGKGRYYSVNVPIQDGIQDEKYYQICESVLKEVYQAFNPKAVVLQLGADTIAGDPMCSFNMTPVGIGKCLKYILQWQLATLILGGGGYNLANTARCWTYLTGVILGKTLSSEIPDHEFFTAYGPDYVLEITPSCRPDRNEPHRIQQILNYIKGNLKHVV
Nature of the assay: Inhibition of recombinant human HDAC8 using RHK-K(Ac)-AMC as substrate by fluorescence based assay.

Assay [2] concerns the target Heat shock protein HSP90 (Homo sapiens) (UniProt P07900+P08238). In words: Inhibition of HSP90 in human NCI-H1975 cells assessed as upregulation of HSP70 expression at 0.03 to 0.3 uM measured upto 24 hrs by Western blot analysis. Type of assay: cell-based. The following applies: dose 0.03-0.3 µM, time hrs <=24. Background: In western blotting, separated proteins are transferred to a membrane and probed.

The test system of assay [3] is NCI-H1975. In words: Induction of apoptosis in human NCI-H1975 cells assessed as increase in caspase 3 activation incubated for 48 hrs by PI staining based Western blot analysis. The following applies: dose 0.1-3 µM. In kind it is functional, cell-based.
Assay [4] relates to NCI-H1975. In words: Induction of apoptosis in human NCI-H1975 cells assessed as increase in caspase 9 activation incubated for 48 hrs by PI staining based Western blot analysis. Type of assay: functional, cell-based. Particulars: dose 0.1-3 µM.
For assay [5], the system named is NCI-H1975. In words: Antitumor activity against human NCI-H1975 cells xenografted in BALB/c mouse assessed as reduction in tumor growth at 50 mg/kg, ip administered for 2 weeks in presence of afatinib and measured after 2 week relative to control. Type of assay: functional. The following applies: 336 h, read-out: TGI. (In general: A xenograft is tissue or cells of one species grown in another, often human tumour cells in immunodeficient mice.)

Assay [6] concerns NCI-H1975. In words: Inhibition of IFN-gamma-induced PD-L1 in human NCI-H1975 cells incubated for 48 hrs by Western blot analysis. In kind it is functional, cell-based. The following applies: dose 0.3-3 µM.

A word on the IC50: it is the concentration needed to halve the response being measured.

For `CC(C)c1cc(C(=O)N2Cc3ccc(NC(=O)CCCCCCCCC(=O)NO)cc3C2)c(O)cc1O`, the IC50 in assay [1] came out at 4.32 nM; at Histone deacetylase 8, 3720 nM. Also, the inhibition result in assay [2] was “Active”. In addition, the Activity result with NCI-H1975 [3] and in the assay with NCI-H1975 [4] was “Dose-dependent effect” throughout. In the assay on NCI-H1975 [5], the inhibition in vivo at 50 mg/kg amounted to 72.3%. In the assay on NCI-H1975 [6], the inhibition entry is “Dose-dependent effect”.
